Measurements from patent publication US9346815B2, “5-chloro-2-difluoromethoxyphenyl pyrazolopyrimidine compounds, compositions and methods of use thereof” (Genentech, Inc., priority 2014, dated 2016).
Counter-ions that a name gives are not always drawn.

Columns and labels:
[1] = system: JAK1-dependent STAT6 phosphorylation downstream of IL-13 stimulation in TF-1 human erythroleukemia cells; test: JAK1 pathway assay in TF-1 cells (IL-13-pSTAT6, MSD); format: cell-based; conditions: Homo sapiens, TF-1, TF-1 cells, read-out: IL13-pSTAT6 EC50_TF-1
Procedure: JAK1 Pathway Assay in Cell Lines was Carried Out as Follows:
Inhibitor potency (EC50) was determined in cell-based assays designed to measure JAK1 dependent STAT phosphorylation.
In one assay approach, TF-1 human erythroleukemia cells obtained from the American Type Culture Collection (ATCC; Manassas, Va.) were used to measure JAK1-dependent STAT6 phosphorylation downstream of IL-13 stimulation. Prior to use in the assays, TF-1 cells were starved of GM-CSF overnight in OptiMEM medium (Life Technologies, Grand Island, N.Y.) supplemented with 0.5% charcoal/dextran stripped fetal bovine serum (FBS), 0.1 mM non-essential amino acids (NEAA), and 1 mM sodium pyruvate. The assays were run in 384-well plates in serum-free OptiMEM medium using 300,000 cells per well. In a second assay approach, BEAS-2B human bronchial epithelial cells obtained from ATCC were plated at 100,000 cells per well of a 96-well plate one day prior to the experiment. The BEAS-2B assay was run in complete growth medium (bronchial epithelial basal medium plus bulletkit; Lonza; Basel, Switzerland).
Test compounds were serially diluted 1:2 in DMSO and then diluted 1:50 in medium just before use. Diluted compounds were added to the cells, for a final DMSO concentration of 0.2%, and incubated for 30 min (for the TF-1 assay) or 1 hr (for the BEAS-2B assay) at 37° C. Then, cells were stimulated with human recombinant cytokine at their respective EC90 concentrations, as previously determined for each individual lot. Cells were stimulated with IL-13 (R&D Systems, Minneapolis, Minn.) for 15 min at 37° C. The TF-1 cell reactions were stopped by the direct addition of 10× lysis buffer (Cell Signaling Technologies, Danvers, Mass.), whereas the BEAS-2B cell incubations were halted by the removal of medium and addition of 1× lysis buffer. The resultant samples were frozen in the plates at −80° C. Compound mediated inhibition of STAT6 phosphorylation was measured in the cell lysates using MesoScale Discovery (MSD) technology (Gaithersburg, Md.).

[2] = molecular target: isolated recombinant JAK1 kinase domain (Homo sapiens (Human), UniProt P23458); test: JAK1 enzyme assay (Caliper LabChip, peptide phosphorylation); format: biochemical; conditions: isolated recombinant JAK1 kinase domain, 25 μM ATP
[3] = molecular target: isolated recombinant JAK2 kinase domain (Homo sapiens (Human), UniProt O60674); test: JAK2 enzyme assay (Caliper LabChip, peptide phosphorylation); format: biochemical; conditions: 25 μM ATP
isolated recombinant JAK2 kinase domain, sequence (O60674 849-1124): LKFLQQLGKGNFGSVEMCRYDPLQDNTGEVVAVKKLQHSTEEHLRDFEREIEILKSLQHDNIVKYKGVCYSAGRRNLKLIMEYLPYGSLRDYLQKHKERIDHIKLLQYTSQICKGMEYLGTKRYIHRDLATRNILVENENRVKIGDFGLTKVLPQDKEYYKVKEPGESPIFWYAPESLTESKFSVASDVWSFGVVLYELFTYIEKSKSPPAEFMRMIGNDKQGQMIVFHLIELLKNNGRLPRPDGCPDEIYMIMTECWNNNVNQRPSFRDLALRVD

isolated recombinant JAK1 kinase domain, sequence (P23458 875-1153): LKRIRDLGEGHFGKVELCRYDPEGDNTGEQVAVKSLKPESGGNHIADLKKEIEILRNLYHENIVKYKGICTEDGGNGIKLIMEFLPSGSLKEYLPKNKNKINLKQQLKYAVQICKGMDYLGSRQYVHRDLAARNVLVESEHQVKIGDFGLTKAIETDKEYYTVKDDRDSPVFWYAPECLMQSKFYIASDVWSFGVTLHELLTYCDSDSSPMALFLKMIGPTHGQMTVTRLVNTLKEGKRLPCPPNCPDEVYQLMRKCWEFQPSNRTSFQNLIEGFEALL

EC50 [1] [nM] | Ki [2] [nM] | Ki [3] [nM] | SMILES
42.5 | 1.12 | 3.09 | CN(Cc1cccc(C(F)(F)F)c1)C1CCN(C(=O)Cn2cc(NC(=O)c3cnn4cccnc34)c(-c3cc(Cl)ccc3OC(F)F)n2)CC1 [Example 128, N-[3-[5-chloro-2-(difluoromethoxy)phenyl]-1-[2-[4-[methyl-[[3-(trifluoromethyl)phenyl]methyl]amino]-1-piperidyl]-2-oxo-ethyl]pyrazol-4-yl]pyrazolo[1,5-a]pyrimidine-3-carboxamide]
1000 | 2.93 | 2.1 | O=C(Nc1sc(-c2ccc(CN3CC(F)(F)C3)cc2)nc1-c1cc(Cl)ccc1OC(F)F)c1cnn2cccnc12 [Example 257, N-[4-[5-chloro-2-(difluoromethoxy)phenyl]-2-[4-[(3,3-difluoroazetidin-1-yl)methyl]phenyl]thiazol-5-yl]pyrazolo[1,5-a]pyrimidine-3-carboxamide]
36.3 | 1.65 | 0.38 | CC(=O)NCCCN1CCC(n2cc(NC(=O)c3cnn4cccnc34)c(-c3cc(Cl)ccc3OC(F)F)n2)CC1 [Example 142, Pyrazolo[1,5-a]pyrimidine-3-carboxylic acid [1-[1-(3-acetylaminopropyl)piperidin-4-yl]-3-(5-chloro-2-difluoromethoxyphenyl)-1H-pyrazol-4-yl]amide hydrochloride]
57.8 | 2.32 | 0.24 | O=C(Nc1cn(C2CCN(CCCN3CCSCC3)CC2)nc1-c1cc(Cl)ccc1OC(F)F)c1cnn2cccnc12 [Example 159, N-[3-[5-chloro-2-(difluoromethoxy)phenyl]-1-[1-(3-thiomorpholinopropyl)-4-piperidyl]pyrazol-4-yl]pyrazolo[1,5-a]pyrimidine-3-carboxamide]
83.9 | 1.23 | 0.43 | Nc1nn2cccnc2c1C(=O)Nc1cn(C2CCN(Cc3ccccc3)CC2)nc1-c1cc(Cl)ccc1OC(F)F [Example 178, 2-amino-N-[1-(1-benzyl-4-piperidyl)-3-[5-chloro-2-(difluoromethoxy)phenyl]pyrazol-4-yl]pyrazolo[1,5-a]pyrimidine-3-carboxamide]
235 | 0.51 | 0.73 | O=C(Nc1cn(CC(=O)N2C[C@H]3CN(CC4CCN(C(=O)C5CCOCC5)CC4)C[C@H]3C2)nc1-c1cc(Cl)ccc1OC(F)F)c1cnn2cccnc12 [Example 35, N-[1-[2-[(3aR,6aS)-2-[[1-(tetrahydropyran-4-carbonyl)-4-piperidyl]methyl]-1,3,3a,4,6,6a-hexahydropyrrolo[3,4-c]pyrrol-5-yl]-2-oxo-ethyl]-3-[5-chloro-2-(difluoromethoxy)phenyl]pyrazol-4-yl]pyrazolo[1,5-a]pyrimidine-3-carboxamide]
746 | 96.3 | 120 | Cc1cnc2c(C(=O)Nc3cn(CC(=O)N4C[C@H]5CN(C)C[C@H]5C4)nc3-c3cc(Cl)ccc3OC(F)F)cnn2c1 [Example 8, 6-Methyl-pyrazolo[1,5-a]pyrimidine-3-carboxylic acid {3-(5-chloro-2-difluoromethoxy-phenyl)-1-[2-((3aR,6aS)-5-methyl-hexahydro-pyrrolo[3,4-c]pyrrol-2-yl)-2-oxo-ethyl]-1H-pyrazol-4-yl}-amide hydrochloride]
117 | 1.63 | 0.77 | O=C(Nc1sc(-c2ccncc2)nc1-c1cc(Cl)ccc1OC(F)F)c1cnn2cccnc12 [Example 254, N-[4-[5-chloro-2-(difluoromethoxy)phenyl]-2-(4-pyridyl)thiazol-5-yl]pyrazolo[1,5-a]pyrimidine-3-carboxamide]
40.2 | 0.78 | 0.36 | CN(C)C1CCN(C(=O)Cn2cc(NC(=O)c3c(N)nn4cccnc34)c(-c3cc(Cl)ccc3OC(F)F)n2)CC1 [Example 139, 2-amino-N-[3-[5-chloro-2-(difluoromethoxy)phenyl]-1-[2-[4-(dimethylamino)-1-piperidyl]-2-oxo-ethyl]pyrazol-4-yl]pyrazolo[1,5-a]pyrimidine-3-carboxamide]
6.8 | 1.16 | 0.22 | O=C(Nc1cn(C2CCN(CCCC(=O)N3CCOCC3)CC2)nc1-c1cc(Cl)ccc1OC(F)F)c1cnn2cccnc12 [Example 169, N-[3-[5-chloro-2-(difluoromethoxy)phenyl]-1-[1-(4-morpholino-4-oxo-butyl)-4-piperidyl]pyrazol-4-yl]pyrazolo[1,5-a]pyrimidine-3-carboxamide]
5.4 | 0.84 | 2.01 | CN(CCOc1ccccc1)C1CCN(C(=O)Cn2cc(NC(=O)c3cnn4cccnc34)c(-c3cc(Cl)ccc3OC(F)F)n2)CC1 [Example 100, N-[3-[5-chloro-2-(difluoromethoxy)phenyl]-1-[2-[4-[methyl(2-phenoxyethyl)amino]-1-piperidyl]-2-oxo-ethyl]pyrazol-4-yl]pyrazolo[1,5-a]pyrimidine-3-carboxamide]
5.9 | 0.24 | 0.1 | Nc1nn2cccnc2c1C(=O)Nc1cn(CC(=O)N2CCC(CO)CC2)nc1-c1cc(Cl)ccc1OC(F)F [Example 266, 2-amino-N-[3-[5-chloro-2-(difluoromethoxy)phenyl]-1-[2-[4-(hydroxymethyl)-1-piperidyl]-2-oxo-ethyl]pyrazol-4-yl]pyrazolo[1,5-a]pyrimidine-3-carboxamide]
36.5 | 1.55 | 0.27 | O=C(CCCN1CCC(n2cc(NC(=O)c3cnn4cccnc34)c(-c3cc(Cl)ccc3OC(F)F)n2)CC1)NC1COC1 [Example 153, N-[3-[5-chloro-2-(difluoromethoxy)phenyl]-1-[1-[4-(oxetan-3-ylamino)-4-oxo-butyl]-4-piperidyl]pyrazol-4-yl]pyrazolo[1,5-a]pyrimidine-3-carboxamide]
158 | 0.94 | 0.95 | CC(=O)N1CCC(CN2C[C@@H]3CN(C(=O)Cn4cc(NC(=O)c5cnn6cccnc56)c(-c5cc(Cl)ccc5OC(F)F)n4)C[C@@H]3C2)CC1 [Example 22, N-[1-[2-[(3aS,6aR)-2-[(1-acetyl-4-piperidyl)methyl]-1,3,3a,4,6,6a-hexahydropyrrolo[3,4-c]pyrrol-5-yl]-2-oxo-ethyl]-3-[5-chloro-2-(difluoromethoxy)phenyl]pyrazol-4-yl]pyrazolo[1,5-a]pyrimidine-3-carboxamide]
30.6 | 1.19 | 2.15 | CN(Cc1cccc(Oc2ccccc2)c1)C1CCN(C(=O)Cn2cc(NC(=O)c3cnn4cccnc34)c(-c3cc(Cl)ccc3OC(F)F)n2)CC1 [Example 113, N-[3-[5-chloro-2-(difluoromethoxy)phenyl]-1-[2-[4-[methyl-[(3-phenoxyphenyl)methyl]amino]-1-piperidyl]-2-oxo-ethyl]pyrazol-4-yl]pyrazolo[1,5-a]pyrimidine-3-carboxamide]
13.4 | 0.74 | 1.68 | COCCN(C)C1CCN(C(=O)Cn2cc(NC(=O)c3cnn4cccnc34)c(-c3cc(Cl)ccc3OC(F)F)n2)CC1 [Example 68, N-[3-[5-chloro-2-(difluoromethoxy)phenyl]-1-[2-[4-[2-methoxyethyl(methyl)amino]-1-piperidyl]-2-oxo-ethyl]pyrazol-4-yl]pyrazolo[1,5-a]pyrimidine-3-carboxamide]
2.2 | – | 0.45 | N#CC1(c2ccccc2)CCN(C(=O)Cn2cc(NC(=O)c3cnn4cccnc34)c(-c3cc(Cl)ccc3OC(F)F)n2)CC1 [Example 281, N-[3-[5-chloro-2-(difluoromethoxy)phenyl]-1-[2-(4-cyano-4-phenyl-1-piperidyl)-2-oxo-ethyl]pyrazol-4-yl]pyrazolo[1,5-a]pyrimidine-3-carboxamide]
15 | – | 0.13 | Nc1nn2cccnc2c1C(=O)Nc1cn(CC(=O)N2C[C@H]3CN(CC4CC4)C[C@H]3C2)nc1-c1cc(Cl)ccc1OC(F)F [Example 57, N-[1-[2-[(3aS,6aR)-2-(cyclopropylmethyl)-1,3,3a,4,6,6a-hexahydropyrrolo[3,4-c]pyrrol-5-yl]-2-oxo-ethyl]-3-[5-chloro-2-(difluoromethoxy)phenyl]pyrazol-4-yl]-2-amino-pyrazolo[1,5-a]pyrimidine-3-carboxamide]
1030 | – | 1.28 | O=C(Nc1cn(CC(=O)N2CCC3(CNC3)C2)nc1-c1cc(Cl)ccc1OC(F)F)c1cnn2cccnc12 [Example 219, N-[3-[5-chloro-2-(difluoromethoxy)phenyl]-1-[2-(2,6-diazaspiro[3.4]octan-6-yl)-2-oxo-ethyl]pyrazol-4-yl]pyrazolo[1,5-a]pyrimidine-3-carboxamide]
